Laboratory results reported in patent US7473697B2, “2-Oxo-piperidinyl- and 2-oxo-azepanyl alkanoic acid derivatives for the treatment of epilepsy and other neurological disorders” (UCB S.A., priority 2001, dated 2009).
Read-outs that look alike come from different tables or passages of the source. Blank lines part the entries; values can stand above or below the compound they belong to.

Key:
[1] = target: T1, Levetiracetam Binding Site (LBS) (Rattus norvegicus, UniProt Q02563); assay: Competitive binding to levetiracetam binding site (LBS), radioligand [3H]-2-[4-(3-azidophenyl)-2-oxo-1-pyrrolidinyl]butanamide, cerebral cortex membranes
T1 construct: from tissue; host or cells: rat cerebral cortex crude membranes (male Sprague-Dawley)
Method: The inhibition constant (Ki) of a compound is determined in competitive binding experiments by measuring the binding of a single concentration of a radioactive ligand at equilibrium with various concentrations of the unlabeled test substance. The concentration of the test substance inhibiting 50% of the specific binding of the radioligand is called the IC50. The equilibrium dissociation constant Ki is proportional to the IC50 and is calculated using the equation of Cheng and Prusoff (Cheng Y. et al., Biochem. Pharmacol. (1972), 22, 3099-3108).
The concentration range usually encompasses 6 log units with variable steps (0.3 to 1 log). Assays are performed in mono- or duplicate, each Ki determination is performed on two different samples of test substance. Cerebral cortex from 200-250 g male Sprague-Dawley rats were homogenised using a Potter S homogeniser (10 strokes at 1,000 rpm; Braun, Germany) in 20 mmol/l Tris-HCl (pH 7.4), 250 mmol/l sucrose (buffer A); all operations were performed at 4° C. The homogenate was centrifuged at 30,000 g for 15 min. The crude membrane pellet obtained was resuspended in 50 mmol/1 Tris-HCl (pH 7.4), (buffer B) and incubated 15 min at 37° C., centrifuged at 30,000 g for 15 min and washed twice with the same buffer. The final pellet was resuspended in buffer A at a protein concentration ranging from 15 to 25 mg/ml and stored in liquid nitrogen.
Membranes (150-200 μg of protein/assay) are incubated at 4° C. for 120 min in 0.5 ml of a 50 mmol/l Tris-HCl buffer (pH 7.4) containing 2 mmol/l MgCl2, 1 to 2.10^−9 mol/l of [^3H]-2-[4-(3-azidophenyl)-2-oxo-1-pyrrolidinyl]butanamide (levetiracetam analog, a tritiated radioligand currently used for the labelling of LBS), and increasing concentrations of the test substance. The non specific binding (NSB) is defined as the residual binding observed in the presence of a concentration of reference substance (e.g. 10^−3 mol/l levetiracetam) that binds essentially all the receptors. Membrane-bound and free radioligands are separated by rapid filtration through glass fiber filters (equivalent to Whatman GF/C or GF/B; VEL, Belgium) pre-soaked in 0.1% polyethyleneimine and 10^−3 mol/l levetiracetam to reduce non specific binding. Samples and filters are rinsed by at least 6 ml of 50 mmol/l Tris-HCl (pH 7.4) buffer. […] The radioactivity trapped onto the filters is counted by liquid scintillation in a β-counter (Tri-Carb 1900 or TopCount 9206, Camberra Packard, Belgium, or any other equivalent counter). Data analysis is perfomed by a computerized non linear curve fitting method using a set of equations describing several binding models assuming populations of independent non-interacting receptors which obey to the law of mass.

[2] = system: sound-susceptible mice (audiogenic seizures, clonic convulsions); assay: Audiogenic seizure test in sound-susceptible mice; assay type: in vivo; details: for ED50: Mus musculus
Excerpt: The objective of this test is to evaluate the anticonvulsant potency of a compound in sound-susceptible mice, a genetic animal model with reflex seizures. In this model of primary generalised epilepsy, seizures are evoked without electrical or chemical stimulation and the seizure types are, at least in part, similar in their clinical phenomenology to seizures occurring in man (Löscher W. & Schmidt D., Epilepsy Res. (1998), 2, 145-181: Buchhalter J. R , Epilepsia (1993), 34, S31-S41).
Male or female genetically sound-sensitive mice (14-28 g; N=10), derived from a DBA strain originally selected by Dr. Lehmann of the Laboratory of Acoustic Physiology (Paris) and bred in the UCB Pharma Sector husbandry unit since 1978, were used. The experimental design consisted of several groups, one group receiving the vehicle control and the other groups different doses of the test-compound. The compounds were administered intraperitoneally 60 minutes before the induction of audiogenic seizures.
For testing, the animals were placed in small cages, one mouse per cage, in a sound-attenuated chamber. After a period of orientation of 30 seconds, the acoustic stimulus (90 dB, 10-20 kHz) was delivered for 30 seconds via loudspeakers positioned above each cage. During this interval, the mice were observed and the presence of the 3 phases of the seizure activity namely wild running, clonic and tonic convulsions, was recorded. The proportion of mice protected against wild running, clonic and tonic convulsions, respectively, was calculated.
For active compounds, an ED50 value, i.e. the dose (expressed in moles per kg of test animal) producing 50% protection relative to the control group, together with 95% confidence limits, was calculated using a Probit Analysis (SAS/STAT® Software, version 6.09, PROBIT procedure) of the proportions of protected mice for each of the 3 phases of the seizure activity.
In tables I-A and I-B the ED50 value (=AUD CC) for the inhibition of Clonic Convulsions in the Audiogenic seizure test are given. This test is a good animal model for the screening of anticonvulsant and/or antiepileptic compounds.

[3] = 7-ring compounds, rat cerebral cortex membranes
[4] = 7-ring compounds, intraperitoneally 60 minutes before induction, inactive = inactive at 1.0E−03
[5] = 6-ring compounds, rat cerebral cortex membranes
[6] = 6-ring compounds, intraperitoneally 60 minutes before induction, inactive = inactive at 1.0E−03

T1 sequence (Q02563 whole entry): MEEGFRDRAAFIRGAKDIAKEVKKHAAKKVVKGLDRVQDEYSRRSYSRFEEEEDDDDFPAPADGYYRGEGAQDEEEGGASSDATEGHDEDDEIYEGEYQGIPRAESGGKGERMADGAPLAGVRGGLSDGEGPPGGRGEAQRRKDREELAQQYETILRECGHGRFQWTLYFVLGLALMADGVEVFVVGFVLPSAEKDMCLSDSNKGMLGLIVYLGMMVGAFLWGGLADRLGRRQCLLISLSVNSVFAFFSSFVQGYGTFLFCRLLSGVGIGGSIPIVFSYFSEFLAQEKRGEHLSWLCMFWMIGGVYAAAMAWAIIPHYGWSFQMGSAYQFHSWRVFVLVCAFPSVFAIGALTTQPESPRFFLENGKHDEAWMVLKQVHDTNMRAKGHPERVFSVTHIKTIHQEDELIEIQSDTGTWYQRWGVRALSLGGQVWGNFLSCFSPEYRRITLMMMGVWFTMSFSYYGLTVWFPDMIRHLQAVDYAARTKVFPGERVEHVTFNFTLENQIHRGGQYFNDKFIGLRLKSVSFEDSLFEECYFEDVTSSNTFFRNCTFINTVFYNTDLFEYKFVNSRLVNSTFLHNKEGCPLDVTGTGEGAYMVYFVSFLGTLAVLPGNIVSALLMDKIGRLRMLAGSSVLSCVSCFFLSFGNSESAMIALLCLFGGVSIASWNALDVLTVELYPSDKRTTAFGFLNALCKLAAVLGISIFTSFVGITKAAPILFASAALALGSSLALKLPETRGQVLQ

SMILES: CCC(C(N)=O)N1CCC(CI)CCC1=O (single isomer, unassigned) [Compound 17, 2-[5-(iodomethyl)-2-oxo-1-azepanyl]butanamide]
- Ki [1, 3]: > 3160 nM

SMILES: CCC(C(N)=O)N1CCC(CI)CCC1=O (single isomer, unassigned) [Compound 18, 2-[5-(iodomethyl)-2-oxo-1-azepanyl]butanamide]
- AUD CC (ED50 for inhibition of Clonic Convulsions in the Audiogenic seizure test) [2, 4]: 0.00013 mol/kg
- Ki [1, 3]: 31.6 to 316 nM

SMILES: CCC(C(N)=O)N1CCC(CI)CCC1=O (single isomer, unassigned) [Compound 19, 2-[5-(iodomethyl)-2-oxo-1-azepanyl]butanamide]
- AUD CC (ED50 for inhibition of Clonic Convulsions in the Audiogenic seizure test) [2, 4]: Inactive
- Ki [1, 3]: > 3160 nM

SMILES: CCC(C(N)=O)N1CCC(CI)CCC1=O (single isomer, unassigned) [Compound 20, 2-[5-(iodomethyl)-2-oxo-1-azepanyl]butanamide]
- AUD CC (ED50 for inhibition of Clonic Convulsions in the Audiogenic seizure test) [2, 4]: 0.00056 mol/kg
- Ki [1, 3]: 316 to 3160 nM

SMILES: CC[C@@H](C(N)=O)N1CC(CI)CCC1=O (stereo partly drawn) [Compound 5, (2S)-2-[5-(iodomethyl)-2-oxo-1-piperidinyl]butanamide]
- ED50 ([2]; ip, read-out: AUD CC (ED50 for inhibition of Clonic Convulsions in the Audiogenic seizure test), 6-ring compounds, intraperitoneally 60 minutes before induction, inactive = inactive at 1.0E−03): 160 µmol/kg
- Ki [1, 5]: 316 to 3160 nM

SMILES: CC[C@@H](C(N)=O)N1CC(CI)CCC1=O (stereo partly drawn) [Compound 6, (2S)-2-[5-(iodomethyl)-2-oxo-1-piperidinyl]butanamide]
- AUD CC (ED50 for inhibition of Clonic Convulsions in the Audiogenic seizure test) [2, 6]: 0.0002 mol/kg
- Ki [1, 5]: 31.6 to 316 nM

- Ki [1, 5]: 31.6 to 316 nM
SMILES: CC[C@@H](C(N)=O)N1CC(CN=[N+]=[N-])CCC1=O (stereo partly drawn) [Compound 7, (2S)-2-[5-(azidomethyl)-2-oxo-1-piperidinyl]butanamide]
- AUD CC (ED50 for inhibition of Clonic Convulsions in the Audiogenic seizure test) ([2]; ip): 0.00012 mol/kg

- Ki [1, 5]: 316 to 3160 nM
SMILES: CC[C@@H](C(N)=O)N1CC(CN=[N+]=[N-])CCC1=O (stereo partly drawn) [Compound 8, (2S)-2-[5-(azidomethyl)-2-oxo-1-piperidinyl]butanamide]
- AUD CC (ED50 for inhibition of Clonic Convulsions in the Audiogenic seizure test) ([2]; ip): 0.00028 mol/kg

SMILES: CCC(C(N)=O)N1CC(c2ccccc2)CCC1=O (stereo not shown) [Compound 9, 2-(2-oxo-5-phenyl-1-piperidinyl)butanamide]
- AUD CC (ED50 for inhibition of Clonic Convulsions in the Audiogenic seizure test) ([2]; ip): 0.00028 mol/kg

SMILES: CCC(C(N)=O)N1CC(c2ccccc2)CCC1=O (stereo not shown) [Compound 10, 2-(2-oxo-5-phenyl-1-piperidinyl)butanamide]
- AUD CC (ED50 for inhibition of Clonic Convulsions in the Audiogenic seizure test) ([2]; ip): Inactive

- Ki [1, 5]: 31.6 to 316 nM
SMILES: CCC(C(N)=O)N1CC(c2ccccc2)CCC1=O (stereo not shown) [Compound 11, 2-(2-oxo-5-phenyl-1-piperidinyl)butanamide]
- AUD CC (ED50 for inhibition of Clonic Convulsions in the Audiogenic seizure test) ([2]; ip): 7e-05 mol/kg

SMILES: CCC(C(N)=O)N1CC(c2ccccc2)CCC1=O (stereo not shown) [Compound 12, 2-(2-oxo-5-phenyl-1-piperidinyl)butanamide]
- AUD CC (ED50 for inhibition of Clonic Convulsions in the Audiogenic seizure test) ([2]; ip): Inactive

SMILES: CC[C@@H](C(N)=O)N1CCC(CI)CC1=O (stereo partly drawn) [Compound 13, (2S)-2-[4-(iodomethyl)-2-oxo-1-piperidinyl]butanamide]
- AUD CC (ED50 for inhibition of Clonic Convulsions in the Audiogenic seizure test) [2, 6]: 0.00011 mol/kg
- Ki [1, 5]: 31.6 to 316 nM

SMILES: CC[C@H](C(N)=O)N1CCC(CI)CC1=O (stereo partly drawn) [Compound 14, (2R)-2-[4-(iodomethyl)-2-oxo-1-piperidinyl]butanamide]
- AUD CC (ED50 for inhibition of Clonic Convulsions in the Audiogenic seizure test) [2, 6]: Inactive

SMILES: CC[C@@H](C(N)=O)N1CCC(CI)CC1=O (stereo partly drawn) [Compound 15, (2S)-2-[4-(iodomethyl)-2-oxo-1-piperidinyl]butanamide]
- AUD CC (ED50 for inhibition of Clonic Convulsions in the Audiogenic seizure test) [2, 6]: 0.00025 mol/kg
- PKi [1, 5]: +++ (+++ = 6.5 ≦ pKi < 7.5)

SMILES: CC[C@H](C(N)=O)N1CCC(CI)CC1=O (stereo partly drawn) [Compound 16, (2R)-2-[4-(iodomethyl)-2-oxo-1-piperidinyl]butanamide]
- AUD CC (ED50 for inhibition of Clonic Convulsions in the Audiogenic seizure test) [2, 6]: Inactive

- Ki ([1]; reference): 794 nM
SMILES: CC[C@@H](C(N)=O)N1CCCC1=O [levetiracetam, (S)-(−)-α-ethyl-2-oxo-1-pyrrolidineacetamide, reference compound]
- ED50 ([2]; reference compound, clonic convulsions, audiogenic seizure test, read-out: ED50 CC): 180 µmol/kg
